Patent publication US8697739B2, “Bicyclic acetyl-CoA carboxylase inhibitors and uses thereof” (Novartis AG, priority 2010, dated 2014)

target: T1, human acetyl-CoA carboxylase 2 (ACC2) (Homo sapiens, UniProt O00763); assay: Acetyl-CoA carboxylase enzyme assay (malonyl-CoA formation by LC/MS/MS); assay type: biochemical; conditions: recombinant human ACC2 (aa 144-2458); read-out: IC50 ACC2
T1 construct: The cDNA encoding amino acids 144 to 2458 of human acetyl-CoA carboxylase 2; made in house; host or cells: Sf9 insect cells (baculovirus, pFastBac1)
T1 sequence (O00763 144-2458): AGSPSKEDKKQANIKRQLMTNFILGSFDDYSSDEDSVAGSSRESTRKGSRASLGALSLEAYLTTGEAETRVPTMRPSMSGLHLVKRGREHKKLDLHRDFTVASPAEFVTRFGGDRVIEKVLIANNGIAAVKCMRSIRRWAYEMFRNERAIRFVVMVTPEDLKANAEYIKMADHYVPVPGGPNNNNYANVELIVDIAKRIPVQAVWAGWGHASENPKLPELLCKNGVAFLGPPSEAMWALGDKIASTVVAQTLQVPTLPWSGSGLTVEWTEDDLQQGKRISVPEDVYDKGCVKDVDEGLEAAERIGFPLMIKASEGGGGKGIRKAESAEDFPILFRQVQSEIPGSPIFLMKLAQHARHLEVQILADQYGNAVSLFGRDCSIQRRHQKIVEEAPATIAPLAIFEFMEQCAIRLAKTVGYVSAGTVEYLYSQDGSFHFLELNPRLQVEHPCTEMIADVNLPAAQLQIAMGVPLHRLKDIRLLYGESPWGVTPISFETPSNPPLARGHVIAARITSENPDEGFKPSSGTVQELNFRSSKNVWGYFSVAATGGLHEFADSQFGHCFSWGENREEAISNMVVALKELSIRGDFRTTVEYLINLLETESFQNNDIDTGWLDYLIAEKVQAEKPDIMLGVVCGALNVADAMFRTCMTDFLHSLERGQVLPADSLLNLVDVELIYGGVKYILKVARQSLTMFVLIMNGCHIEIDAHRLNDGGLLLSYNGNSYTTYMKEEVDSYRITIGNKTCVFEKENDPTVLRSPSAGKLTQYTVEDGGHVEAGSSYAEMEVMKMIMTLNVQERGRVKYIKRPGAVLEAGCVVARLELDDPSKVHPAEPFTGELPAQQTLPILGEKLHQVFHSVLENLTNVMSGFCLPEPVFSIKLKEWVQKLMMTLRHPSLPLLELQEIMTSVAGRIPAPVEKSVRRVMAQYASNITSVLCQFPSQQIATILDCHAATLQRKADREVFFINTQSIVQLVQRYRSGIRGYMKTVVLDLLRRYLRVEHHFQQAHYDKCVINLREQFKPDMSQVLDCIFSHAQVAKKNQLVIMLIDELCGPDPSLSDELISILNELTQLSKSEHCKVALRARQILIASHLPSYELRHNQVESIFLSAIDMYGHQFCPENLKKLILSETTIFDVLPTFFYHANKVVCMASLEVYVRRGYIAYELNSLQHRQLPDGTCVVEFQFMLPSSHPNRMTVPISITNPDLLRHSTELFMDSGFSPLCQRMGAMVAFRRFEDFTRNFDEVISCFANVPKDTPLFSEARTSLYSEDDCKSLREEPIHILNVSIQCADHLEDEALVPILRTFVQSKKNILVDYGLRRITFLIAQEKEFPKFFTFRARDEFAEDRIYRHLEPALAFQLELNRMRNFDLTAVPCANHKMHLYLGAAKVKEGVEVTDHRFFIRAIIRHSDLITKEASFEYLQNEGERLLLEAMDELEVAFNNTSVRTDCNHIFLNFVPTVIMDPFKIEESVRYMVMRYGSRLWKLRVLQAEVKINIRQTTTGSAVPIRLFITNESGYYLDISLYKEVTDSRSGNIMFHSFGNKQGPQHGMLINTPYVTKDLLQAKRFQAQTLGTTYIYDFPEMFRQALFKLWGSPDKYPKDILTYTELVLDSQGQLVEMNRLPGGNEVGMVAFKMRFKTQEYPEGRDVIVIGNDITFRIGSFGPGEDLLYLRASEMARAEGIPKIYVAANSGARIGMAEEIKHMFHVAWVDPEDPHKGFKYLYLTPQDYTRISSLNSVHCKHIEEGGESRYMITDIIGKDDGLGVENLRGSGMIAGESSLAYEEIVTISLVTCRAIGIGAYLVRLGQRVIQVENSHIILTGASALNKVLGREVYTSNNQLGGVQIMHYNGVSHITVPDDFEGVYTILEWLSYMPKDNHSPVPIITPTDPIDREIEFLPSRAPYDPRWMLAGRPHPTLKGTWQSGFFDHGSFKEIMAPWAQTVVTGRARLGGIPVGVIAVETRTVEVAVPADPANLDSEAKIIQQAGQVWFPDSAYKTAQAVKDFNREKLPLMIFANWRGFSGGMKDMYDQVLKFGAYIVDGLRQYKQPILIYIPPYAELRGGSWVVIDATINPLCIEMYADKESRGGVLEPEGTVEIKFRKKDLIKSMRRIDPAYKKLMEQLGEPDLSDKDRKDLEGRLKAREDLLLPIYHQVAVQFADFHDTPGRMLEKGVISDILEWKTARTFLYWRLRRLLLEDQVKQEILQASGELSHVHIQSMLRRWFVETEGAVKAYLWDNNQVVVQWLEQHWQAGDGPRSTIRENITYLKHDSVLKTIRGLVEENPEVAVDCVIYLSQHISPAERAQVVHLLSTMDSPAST
In short: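 Malonyl-CoA formation was read by LC/MS/MS MRM against a [13C3]-malonyl-CoA internal standard, after acetic acid quench. The enzyme was baculovirus/Sf9-expressed human ACC2 residues 144–2458, given 15 minutes room-temperature compound preincubation in HEPES pH 7.5 buffer with MgCl2, citrate and DTT. Substrate solution held 50 μM acetyl-CoA, 120 μM ATP and 2 mM KHCO3.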

Compound | IC50 [nM]
C[C@@H](NC(=O)[C@H]1CC[C@H](NS(=O)(=O)c2ccc3nc(C4CCOCC4)[nH]c3c2)CC1)c1ccc(F)cc1 [Example 6, (1r,4R)—N—((R)-1-(4-fluorophenyl)ethyl)-4-(2-(tetrahydro-2H-pyran-4-yl)-1H-benzo[d]imidazole-6-sulfonamido)cyclohexanecarboxamide] | 156
Cn1c(-c2ccc(CCC(=O)O)cc2)cc2ccc(S(=O)(=O)N[C@H]3CC[C@H](C(=O)N4CCCCC4)CC3)cc21 [Example 359, 3-(4-(1-methyl-6-(N-((1r,4r)-4-(piperidine-1-carbonyl)cyclohexyl)sulfamoyl)-1H-indol-2-yl)phenyl)propanoic acid] | 95
Cn1c(-c2ccc(F)cc2)cc2ccc(S(=O)(=O)N[C@H]3CC[C@H](C(=O)N4CCCC(C(=O)O)C4)CC3)cc21 (stereo partly drawn) [Example 346, 1-((1r,4r)-4-(2-(4-fluorophenyl)-1-methyl-1H-indole-6-sulfonamido)cyclohexanecarbonyl)piperidine-3-carboxylic acid] | 265
C[C@@H](NC(=O)[C@H]1CC[C@@H](NS(=O)(=O)c2cnc3c(c2)NCC(C)(C)CN3)CC1)c1ccc(F)cc1 [Example 154, (1s,4S)-4-(3,3-dimethyl-2,3,4,5-tetrahydro-1H-pyrido[2,3-b][1,4]diazepine-8-sulfonamido)-N-((R)-1-(4-fluorophenyl)ethyl)cyclohexanecarboxamide] | 1990
C[C@@H](NC(=O)[C@H]1CC[C@H](NS(=O)(=O)c2ccc3c(c2)NCCC3(C)C)CC1)c1ccc(F)cc1 [Example 196, (1r,4R)-4-(4,4-dimethyl-1,2,3,4-tetrahydroquinoline-7-sulfonamido)-N-((R)-1-(4-fluorophenyl)ethyl)cyclohexanecarboxamide] | 220
Cc1ccccc1-c1cc2ccc(S(=O)(=O)N[C@H]3CC[C@H](C(=O)N4CCOC[C@@H]4c4ccccc4)CC3)cc2[nH]1 [Example 326, N-((1S,4r)-4-((S)-3-phenylmorpholine-4-carbonyl)cyclohexyl)-2-o-tolyl-1H-indole-6-sulfonamide] | 325
CC(NC(=O)[C@H]1CC[C@H](NS(=O)(=O)c2ccc3c(c2)N(C)CCC3)CC1)c1cccnc1 (stereo partly drawn) [Example 160, (1r,4r)-4-(1-methyl-1,2,3,4-tetrahydroquinoline-7-sulfonamido)-N-(1-(pyridin-3-yl)ethyl)cyclohexanecarboxamide] | 80

More lines, now with the values ahead:

IC50 [nM] | Compound
< 10 | C[C@@H](NC(=O)[C@H]1CC[C@H](NS(=O)(=O)c2ccc3[nH]c(Nc4ccc(N5CCOCC5)cc4)nc3c2)CC1)c1ccccc1 [Example 574, (1r,4R)-4-(2-(4-morpholinophenylamino)-1H-benzo[d]imidazole-5-sulfonamido)-N-((R)-1-phenylethyl)cyclohexanecarboxamide]
2030 | CC(C)(C)c1nnc([C@H]2CC[C@H](NS(=O)(=O)c3ccc4[nH]c(-c5cccnc5)nc4c3)CC2)o1 [Example 653, N-((1r,4r)-4-(5-tert-butyl-1,3,4-oxadiazol-2-yl)cyclohexyl)-2-(pyridin-3-yl)-1H-benzo[d]imidazole-5-sulfonamide]
1780 | CC(C)OC(=O)c1ccc(NS(=O)(=O)c2ccc3nc(-c4ccc(OC(C)C)cc4)[nH]c3c2)cc1 [Example 505, isopropyl 4-(2-(4-isopropoxyphenyl)-1H-benzo[d]imidazole-6-sulfonamido)benzoate]
115 | CCOC(=O)CCc1c(Cl)c2ccc(S(=O)(=O)N[C@H]3CC[C@H](C(=O)N4CCCC4c4ccc(F)cc4)CC3)cc2n1C (stereo partly drawn) [Example 371, ethyl 3-(3-chloro-6-(N-((1r,4r)-4-(2-(4-fluorophenyl)pyrrolidine-1-carbonyl)cyclohexyl)sulfamoyl)-1-methyl-1H-indol-2-yl)propanoate]
10300 | CN(C)CCNC(=O)[C@H]1CC[C@H](NS(=O)(=O)c2ccc3[nH]c(-c4ccccc4)nc3c2)CC1 [Example 631, (1r,4r)-N-(2-(dimethylamino)ethyl)-4-(2-phenyl-1H-benzo[d]imidazole-5-sulfonamido)cyclohexanecarboxamide]
